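Test compounds were applied to cells in 96-well plates for 48 hours at 5 doses. Abbreviation: GI50, concentration required for 50% inhibition of growth.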 Active and inactive are the calls of the source. No stated cut-off is given here; in the data, active = GI50 up to about 1.1 µM and inactive = higher.
Columns and labels:
Assay in all cases: growth of human tumour cells (NCI), 48 h
SK-OV-3 = tested on: SK-OV-3
COLO 205 = tested on: COLO 205
DMS-114 = tested on: DMS-114
NCI-H226 = tested on: NCI-H226
A549 = tested on: A549
SNB-75 = tested on: SNB-75
UACC-62 = tested on: UACC-62
K562 = tested on: K562
HCT-15 = tested on: HCT-15
CAKI-1 = tested on: CAKI-1
SK-MEL-2 = tested on: SK-MEL-2
A498 = tested on: A498
786-0 = tested on: 786-0
ACHN = tested on: ACHN
UACC-257 = tested on: UACC-257
XF498 = tested on: XF498
SK-MEL-5 = tested on: SK-MEL-5
UO-31 = tested on: UO-31
OVCAR-3 = tested on: OVCAR-3
SNB-78 = tested on: SNB-78
NCI-H460 = tested on: NCI-H460
EKVX = tested on: EKVX
U-251 = tested on: U-251
SW-620 = tested on: SW-620
Malme-3M = tested on: Malme-3M
HOP-18 = tested on: HOP-18
SF-539 = tested on: SF-539
HL-60 = tested on: HL-60
HOP-62 = tested on: HOP-62
KM-20L2 = tested on: KM-20L2
SF-268 = tested on: SF-268
OVCAR-4 = tested on: OVCAR-4
M19-MEL = tested on: M19-MEL
NCI-H522 = tested on: NCI-H522
RXF 631 = tested on: RXF 631
SNB-19 = tested on: SNB-19
HT-29 = tested on: HT-29
OVCAR-8 = tested on: OVCAR-8
MOLT-4 = tested on: MOLT-4
M14 = tested on: M14
NCI-H23 = tested on: NCI-H23
SN12C = tested on: SN12C
OVCAR-5 = tested on: OVCAR-5
RPMI-8226 = tested on: RPMI-8226
CCRF-CEM = tested on: CCRF-CEM
TK-10 = tested on: TK-10
DLD-1 = tested on: DLD-1
LXFL 529 = tested on: LXFL 529
SK-MEL-28 = tested on: SK-MEL-28
HCT-116 = tested on: HCT-116
HCC 2998 = tested on: HCC 2998
HOP-92 = tested on: HOP-92
IGROV-1 = tested on: IGROV-1
SF-295 = tested on: SF-295
DMS-273 = tested on: DMS-273
KM12 = tested on: KM12

In the case of Nn1c(-c2ccccc2Cl)nc2ccccc2c1=O, the GI50 (SK-OV-3) is reported as > 100 µM (inactive), the GI50 (COLO 205) is reported as > 100 µM (inactive) and the GI50 (DMS-114) is reported as > 100 µM (inactive). The GI50 (NCI-H226) was 57 µM (inactive), the GI50 (A549) was > 100 µM (inactive) and the GI50 (SNB-75) was > 100 µM (inactive). For the same compound, the GI50 (UACC-62) was > 100 µM (inactive), the GI50 (K562) was > 100 µM (inactive) and the GI50 (HCT-15) was over 100 µM. The GI50 (CAKI-1) was > 100 µM (inactive), the GI50 (SK-MEL-2) was > 100 µM (inactive) and the GI50 (A498) was > 100 µM (inactive). For the same compound, the GI50 (786-0) was > 100 µM (inactive), the GI50 (ACHN) was > 100 µM (inactive) and the GI50 (UACC-257) was > 100 µM (inactive). For the same compound, the GI50 (XF498) was > 100 µM (inactive), the GI50 (SK-MEL-5) was > 100 µM (inactive) and the GI50 (UO-31) was > 100 µM (inactive). The GI50 (OVCAR-3) was > 100 µM (inactive), the GI50 (SNB-78) was > 100 µM (inactive) and the GI50 (NCI-H460) was > 100 µM (inactive). The GI50 (EKVX) was > 100 µM (inactive), the GI50 (U-251) was > 100 µM (inactive) and the GI50 (SW-620) was > 100 µM (inactive). The GI50 (Malme-3M) was 83.8 µM (inactive), the GI50 (HOP-18) was 44.8 µM (inactive) and the GI50 (SF-539) was > 100 µM (inactive). The GI50 (HL-60) was > 100 µM (inactive), the GI50 (HOP-62) was > 100 µM (inactive) and the GI50 (KM-20L2) was > 100 µM (inactive). For the same compound, the GI50 (SF-268) was > 100 µM (inactive), the GI50 (OVCAR-4) was > 100 µM (inactive) and the GI50 (M19-MEL) was > 100 µM (inactive). The GI50 (NCI-H522) was > 100 µM (inactive), the GI50 (RXF 631) was > 100 µM (inactive) and the GI50 (SNB-19) was > 100 µM (inactive). For the same compound, the GI50 (HT-29) was > 100 µM (inactive), the GI50 (OVCAR-8) was > 100 µM (inactive) and the GI50 (MOLT-4) was > 100 µM (inactive). For the same compound, the GI50 (M14) was > 100 µM (inactive), the GI50 (NCI-H23) was > 100 µM (inactive) and the GI50 (SN12C) was > 100 µM (inactive). The GI50 (OVCAR-5) was > 100 µM (inactive), the GI50 (RPMI-8226) was > 100 µM (inactive) and the GI50 (CCRF-CEM) was > 100 µM (inactive). For the same compound, the GI50 (TK-10) was > 100 µM (inactive), the GI50 (DLD-1) was > 100 µM (inactive) and the GI50 (LXFL 529) was > 100 µM (inactive). For the same compound, the GI50 (SK-MEL-28) was > 100 µM (inactive), the GI50 (HCT-116) was > 100 µM (inactive) and the GI50 (HCC 2998) was > 100 µM (inactive). The GI50 (HOP-92) was > 100 µM (inactive), the GI50 (IGROV-1) was > 100 µM (inactive) and the GI50 (SF-295) was > 100 µM (inactive). The GI50 (DMS-273) was > 100 µM (inactive) and the GI50 (KM12) was > 100 µM (inactive).
